Laboratory results as given in patent publication US20060035811A1, “Methods of treating dry eye disease with lantibiotics” (priority 2002, published 2006).

Tested on: New Zealand (albino) rabbits
Experiment: Tear secretion in albino rabbits after topical instillation (Schirmer strips)
Type: in vivo
Settings: for Tear secretion % Mean (% of baseline) / Tear secretion (mm) Mean: 1×50 microliters, right eye
Procedure: New Zealand (albino) rabbits were the experimental model used to test the action of duramycin. Four animals were involved for each formulation: Duramycin was used in a formulation at 0.5 mg/ml dissolved in saline (0.9% sodium chloride) at pH between 6 and 7 and was compared with 0.9% sodium chloride and with 0.9% sodium chloride at pH between 6 and 7 (vehicle). Animals were randomly allocated into 3 groups of 4 animals each by a computer controlled program.
Aliquots (1×50 microliters) were administered using a micropipette into the right eyes while the left eyes remained untreated. Sampling was performed in the right eyes for a constant interval of 15 seconds before the instillation and at 15, 30, 60, 120, and 180 minutes after instillation. Tear secretion was collected and measured on treated eyes using Schimer strips.
Tear secretion, measured as the tear migration onto Schirmer strips for 15 seconds, was expressed in millimeters (mm) and in percents (%) of baseline values. The % of baseline values was the mean of individual %. T max is the time when the maximum mean value is obtained and is expressed in minutes (min).
Mean AUC0-180 min value (area under the curve from baseline to 180 min) is the mean of individual AUC0-180 min values calculated using the trapezoidal rule and is expressed in mm×min and in %×min.

[1] = 15 min after instillation, 0.5 mg/ml
[2] = 30 min after instillation, 0.5 mg/ml
[3] = 60 min after instillation, 0.5 mg/ml
[4] = 120 min after instillation, 0.5 mg/ml
[5] = 180 min after instillation, 0.5 mg/ml
[6] = baseline to 180 min, trapezoidal rule, mean of individual values, 0.5 mg/ml

With duramycin the “Tear secretion % Mean (% of baseline)” value (0 min (before instillation, baseline), 0.5 mg/ml) was 100.0%, the “Tear secretion (mm) Mean” value (0 min (before instillation, baseline), 0.5 mg/ml, Schirmer strip 15 seconds) was 2.8 mm and the “Increase of tear secretion compared with saline, based on AUC0-180 min in %” value (0.5 mg/ml vs saline treatment) was 3.56 times. The “Increase of tear secretion compared with saline, based on AUC0-180 min in mm” value (0.5 mg/ml vs saline treatment) was 1.92 times, the “Increase of tear secretion compared with saline, based on maximum value in %” value (0.5 mg/ml vs saline treatment) was 4.59 times and the “Increase of tear secretion compared with saline, based on maximum value in mm” value (0.5 mg/ml vs saline treatment) was 2.47 times. For the same substance, the “Tear secretion % Mean (% of baseline)” value [1] was 329.2%, the “Tear secretion (mm) Mean” value [1] was 6.0 mm and the “Tear secretion % Mean (% of baseline)” value [2] was 459.4%. The “Tear secretion (mm) Mean” value [2] was 9.4 mm, the “Tear secretion % Mean (% of baseline)” value [3] was 260.4% and the “Tear secretion (mm) Mean” value [3] was 4.8 mm. For the same substance, the “Tear secretion % Mean (% of baseline)” value [4] was 157.3%, the “Tear secretion (mm) Mean” value [4] was 3.5 mm and the “Tear secretion % Mean (% of baseline)” value [5] was 245.8%. The “Tear secretion (mm) Mean” value [5] was 4.9 mm, the “Tmax (time when the maximum mean tear secretion is obtained)” value (after instillation, 0.5 mg/ml) was 30 min and the “AUC 0-180 of tear secretion” value [6] was 891.6 mm × min. For the same substance, the “AUC 0-180 of tear secretion (% of baseline)” value [6] was 44554.7 % × min.
